The text below walks through data of ChEMBL document CHEMBL4118097, “Selective Inhibitors of Dual Leucine Zipper Kinase (DLK, MAP3K12) with Activity in a Model of Alzheimer's Disease” (J Med Chem, 2017).

pIC50, pKi: −log10 of the molar value.

In the first series the target is T1, Mitogen-activated protein kinase kinase kinase 12 (Homo sapiens, UniProt Q12852).
T1 sequence (Q12852 whole entry): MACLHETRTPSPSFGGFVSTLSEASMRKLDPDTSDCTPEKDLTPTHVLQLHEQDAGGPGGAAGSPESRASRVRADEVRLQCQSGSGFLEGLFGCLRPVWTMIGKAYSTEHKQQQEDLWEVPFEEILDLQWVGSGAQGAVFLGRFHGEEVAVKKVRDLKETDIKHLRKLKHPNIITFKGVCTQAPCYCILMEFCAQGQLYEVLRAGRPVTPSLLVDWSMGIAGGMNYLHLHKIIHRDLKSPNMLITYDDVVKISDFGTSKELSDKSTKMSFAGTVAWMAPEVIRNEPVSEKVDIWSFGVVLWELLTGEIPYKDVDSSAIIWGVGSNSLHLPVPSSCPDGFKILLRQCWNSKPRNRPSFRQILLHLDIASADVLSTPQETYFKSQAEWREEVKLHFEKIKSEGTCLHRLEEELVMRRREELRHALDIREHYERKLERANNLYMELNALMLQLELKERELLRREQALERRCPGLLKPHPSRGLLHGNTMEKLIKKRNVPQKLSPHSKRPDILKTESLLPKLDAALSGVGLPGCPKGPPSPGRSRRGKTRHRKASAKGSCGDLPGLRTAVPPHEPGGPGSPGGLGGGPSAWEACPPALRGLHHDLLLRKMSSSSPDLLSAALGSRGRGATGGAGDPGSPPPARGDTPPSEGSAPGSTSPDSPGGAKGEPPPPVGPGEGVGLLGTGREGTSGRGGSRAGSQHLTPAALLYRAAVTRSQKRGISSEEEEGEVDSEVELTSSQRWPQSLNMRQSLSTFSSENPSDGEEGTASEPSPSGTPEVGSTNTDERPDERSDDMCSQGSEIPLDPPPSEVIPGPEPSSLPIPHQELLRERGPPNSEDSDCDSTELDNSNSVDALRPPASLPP
Briefly: Binding affinity to N-terminally GST-tagged wild type human DLK (1 to 520 residues) expressed in sf21 insect cells using N-terminally His-tagged MKK4 K131M as substrate after 60 mins in presence of ATP by TR-FRET assay.
Conditions: not given
In general terms: TR-FRET usually uses a lanthanide donor and a delayed reading to cut background.
As to `CC(C)n1nc(-c2cnc(N)c(C(F)(F)F)c2)cc1[C@H]1[C@@H]2CN(CC3COC3)C[C@@H]21`, the pKi is 8.30.
For `Nc1ncc(-c2cc([C@H]3[C@@H]4CN(C5COC5)C[C@@H]43)n(CC3CC3)n2)cc1OC(F)(F)F`, the pKi was 8.52.
With `Nc1ncc(-c2cc([C@H]3[C@@H]4CN(C5COC5)C[C@@H]43)n(CC(F)(F)F)n2)cc1C(F)(F)F`, the pKi was 7.80.
As to `CC(C)(O)Cn1nc(-c2cnc(N)c(C(F)(F)F)c2)cc1[C@H]1[C@@H]2CN(C3COC3)C[C@@H]21`, the pKi is 7.64.
The same measure, in the same setting: the result for `CC(=O)N1C[C@@H]2[C@H](C1)[C@H]2c1cc(-c2cnc(N)c(C(F)(F)F)c2)nn1C(C)C` reads 8.22.
Turning to `Nc1ncc(-c2cc([C@H]3[C@@H]4CN(C5COC5)C[C@@H]43)n(CC3CCCC3)n2)cc1C(F)(F)F`, the pKi was 8.05.
In the case of `Cn1nc(-c2cnc(N)c(C(F)(F)F)c2)cc1[C@H]1[C@@H]2CN(C3COC3)C[C@@H]21`, the pKi is 7.09.
In the case of `CC(C)Cn1nc(-c2cnc(N)c(C(F)(F)F)c2)cc1[C@H]1[C@@H]2CN(C3COC3)C[C@@H]21`, the pKi was 8.52.
On the same count and under the same terms, the result for `Cc1c[nH]c2ncc(-c3cc(C4CCN(C5COC5)CC4)n(C(C)C)n3)cc12` reads 8.40; that for `CC(O)CN1C[C@@H]2[C@H](C1)[C@H]2c1cc(-c2cnc(N)c(C(F)(F)F)c2)nn1C(C)C` (some centres undefined), 8.40.
`COCCN1C[C@@H]2[C@H](C1)[C@H]2c1cc(-c2cnc(N)c(C(F)(F)F)c2)nn1C(C)C`: the pKi is 8.05.
With `Cn1nc(-c2cnc(N)c(OC(F)(F)F)c2)cc1[C@H]1[C@@H]2CN(C3COC3)C[C@@H]21`, the pKi is 7.17.
As for `Cc1cc(-c2cc(C3CCN(C4COC4)CC3)n(C(C)C)n2)cnc1N`, the pKi is under 5.80.
For the compound `CCn1nc(-c2cnc(N)c(C(F)(F)F)c2)cc1[C@H]1[C@@H]2CN(C3COC3)C[C@@H]21`, the pKi is 8.52.
On to `COc1cc(-c2cc([C@H]3[C@@H]4CN(C5COC5)C[C@@H]43)n(C(C)C)n2)cnc1N`, for which the pKi was 8.15.

For another series, the target named is T1, Mitogen-activated protein kinase kinase kinase 12. Description: Inhibition of doxycycline inducible human DLK transfected in HEK293 cells assessed as JNK phosphorylation after […] by Hoechst-33342 staining-based assay.
Conditions: not given
It counts as cell-based.
On to `CC(C)n1nc(-c2cnc3[nH]cc(F)c3c2)cc1C1CCN(C2COC2)CC1`, for which the pIC50 was 5.55.
On to `CC(C)n1nc(-c2cnc(N)c(C(F)(F)F)c2)cc1[C@H]1[C@@H]2CN(CC3COC3)C[C@@H]21`, for which the pIC50 is 6.56.
`Nc1ncc(-c2cc([C@H]3[C@@H]4CN(C5COC5)C[C@@H]43)n(CC3CC3)n2)cc1OC(F)(F)F`: the pIC50 is 6.52.
On the same count and under the same terms, next, `CC(C)n1nc(-c2cnc3[nH]cc(Cl)c3c2)cc1C1CCN(C2COC2)CC1`: 6.24; `Nc1ncc(-c2cc([C@H]3[C@@H]4CN(C5COC5)C[C@@H]43)n(CC(F)(F)F)n2)cc1C(F)(F)F`: 6.74.
On to `CC(C)(O)Cn1nc(-c2cnc(N)c(C(F)(F)F)c2)cc1[C@H]1[C@@H]2CN(C3COC3)C[C@@H]21`, for which the pIC50 is 6.08.
As for `CC(=O)N1C[C@@H]2[C@H](C1)[C@H]2c1cc(-c2cnc(N)c(C(F)(F)F)c2)nn1C(C)C`, the pIC50 is 6.52.
As for `CC(C)n1nc(-c2cnc(N)c(OC(F)F)c2)cc1[C@H]1[C@@H]2CN(C3COC3)C[C@@H]21`, the pIC50 is 6.48.
`CC(C)n1nc(-c2cnc(N)c(C(F)(F)F)c2)cc1C1CCN(C2COC2)CC1`: the pIC50 was 5.72.
Regarding `CC(C)n1nc(-c2cnc(N)c(C(F)F)c2)cc1[C@H]1[C@@H]2CN(C3COC3)C[C@@H]21`, the pIC50 was 5.92.
For `Nc1ncc(-c2cc([C@H]3[C@@H]4CN(C5COC5)C[C@@H]43)n(CC3CCCC3)n2)cc1C(F)(F)F`, the pIC50 is 6.69.
Turning to `CC(C)n1nc(-c2cnc(N)c(Cl)c2)cc1C1CCN(C2COC2)CC1`, the pIC50 was 5.77.
For `Cn1nc(-c2cnc(N)c(C(F)(F)F)c2)cc1[C@H]1[C@@H]2CN(C3COC3)C[C@@H]21`, the pIC50 is 5.74.
As to `CC(C)Cn1nc(-c2cnc(N)c(C(F)(F)F)c2)cc1[C@H]1[C@@H]2CN(C3COC3)C[C@@H]21`, the pIC50 is 7.00.
Turning to `Cc1c[nH]c2ncc(-c3cc(C4CCN(C5COC5)CC4)n(C(C)C)n3)cc12`, the pIC50 was 6.52.
For `CC(O)CN1C[C@@H]2[C@H](C1)[C@H]2c1cc(-c2cnc(N)c(C(F)(F)F)c2)nn1C(C)C` (some centres undefined), the pIC50 was 6.68.
For the compound `CC(C)n1nc(-c2cnc(N)c(C(F)(F)F)c2)cc1[C@H]1[C@@H]2CN(CC(F)F)C[C@@H]21`, the pIC50 was 6.21.
Still for that read-out and setting: the result for `CC(C)n1nc(-c2cnc3[nH]cc(C(F)(F)F)c3c2)cc1C1CCN(C2COC2)CC1` reads 6.31.
Same read-out and setting: next, `COCCN1C[C@@H]2[C@H](C1)[C@H]2c1cc(-c2cnc(N)c(C(F)(F)F)c2)nn1C(C)C`: 6.58; `Cn1nc(-c2cnc(N)c(OC(F)(F)F)c2)cc1[C@H]1[C@@H]2CN(C3COC3)C[C@@H]21`: 5.89.
On the same count and under the same terms, the result for `CCn1nc(-c2cnc(N)c(C(F)(F)F)c2)cc1[C@H]1[C@@H]2CN(C3COC3)C[C@@H]21` reads 6.39; that for `COc1cc(-c2cc([C@H]3[C@@H]4CN(C5COC5)C[C@@H]43)n(C(C)C)n2)cnc1N`, 6.06.

In a further series the test system is MDR1 (P-gp), human. Briefly: Efflux ratio of permeability from basolateral to apical side over apical to basolateral side in MDCK cells harboring human MDR1. It counts as ADME, cell-based, Canis lupus familiaris. The following applies: dog.
Regarding `CC(C)n1nc(-c2cnc(N)c(C(F)(F)F)c2)cc1[C@H]1[C@@H]2CN(CC(F)F)C[C@@H]21`, the efflux ratio worked out at 0.3.

Another series has as its system MDR1 (P-gp), human. Briefly: Permeability from apical side to basolateral side in MDCK1 cells harboring human MDR1. It is filed as ADME, cell-based, Canis lupus familiaris. The following applies: dog, MDCK-MDR1; read-out: permeability.
In the case of `CC(C)n1nc(-c2cnc(N)c(C(F)(F)F)c2)cc1[C@H]1[C@@H]2CN(CC(F)F)C[C@@H]21`, the Papp A→B was found to be 7.9 ×10⁻⁶ cm/s.

For orientation: pKi means the Ki on a negative log10 scale, so that one unit is a factor of ten. For orientation: pIC50 means −log10 of the IC50, conventionally taken in molar units. In general, efflux ratio refers to the permeability from basolateral to apical divided by that in the opposite direction, in the common usage.
